In PubChem BioAssay (NCI):
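GI50: concentration for 50% inhibition of growth. TGI: concentration producing complete growth inhibition.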

Legend:
Test in all cases: NCI tumour cell line growth inhibition, 384-well format
786-0 renal = tested on: 786-0 renal
A498 renal = tested on: A498 renal
A549 NSCLC = tested on: A549 NSCLC
ACHN renal = tested on: ACHN renal
BT-549 breast = tested on: BT-549 breast
CAKI-1 renal = tested on: CAKI-1 renal
CCRF-CEM leukemia = tested on: CCRF-CEM leukemia
COLO 205 colon = tested on: COLO 205 colon
DU-145 prostate = tested on: DU-145 prostate
EKVX NSCLC = tested on: EKVX NSCLC
HCC-2998 colon = tested on: HCC-2998 colon
HCT-116 colon = tested on: HCT-116 colon
HCT-15 colon = tested on: HCT-15 colon
HL-60(TB) leukemia = tested on: HL-60(TB) leukemia
HOP-62 NSCLC = tested on: HOP-62 NSCLC
HOP-92 NSCLC = tested on: HOP-92 NSCLC
HS 578T breast = tested on: HS 578T breast
HT29 colon = tested on: HT29 colon
IGROV1 ovarian = tested on: IGROV1 ovarian
K-562 leukemia = tested on: K-562 leukemia
KM12 colon = tested on: KM12 colon
LOX IMVI melanoma = tested on: LOX IMVI melanoma
M14 melanoma = tested on: M14 melanoma
MALME-3M melanoma = tested on: MALME-3M melanoma
MCF7 breast = tested on: MCF7 breast
MDA-MB-435 melanoma = tested on: MDA-MB-435 melanoma
MDA-MB-468 breast = tested on: MDA-MB-468 breast
MOLT-4 leukemia = tested on: MOLT-4 leukemia
NCI-H226 lung = tested on: NCI-H226 lung
NCI-H23 lung = tested on: NCI-H23 lung
NCI-H322M lung = tested on: NCI-H322M lung
NCI-H460 NSCLC = tested on: NCI-H460 NSCLC
NCI-H522 lung = tested on: NCI-H522 lung
NCI/ADR-RES ovarian = tested on: NCI/ADR-RES ovarian
OVCAR-3 ovarian = tested on: OVCAR-3 ovarian
OVCAR-4 ovarian = tested on: OVCAR-4 ovarian
OVCAR-8 ovarian = tested on: OVCAR-8 ovarian
PC-3 prostate = tested on: PC-3 prostate
RPMI-8226 leukemia = tested on: RPMI-8226 leukemia
RXF 393 renal = tested on: RXF 393 renal
SF-268 CNS = tested on: SF-268 CNS
SF-295 CNS = tested on: SF-295 CNS
SF-539 CNS = tested on: SF-539 CNS
SK-MEL-2 melanoma = tested on: SK-MEL-2 melanoma
SK-MEL-28 melanoma = tested on: SK-MEL-28 melanoma
SK-MEL-5 melanoma = tested on: SK-MEL-5 melanoma
SK-OV-3 ovarian = tested on: SK-OV-3 ovarian
SN12C renal = tested on: SN12C renal
SNB-19 CNS = tested on: SNB-19 CNS
SNB-75 CNS = tested on: SNB-75 CNS
SW-620 colon = tested on: SW-620 colon
TK-10 renal = tested on: TK-10 renal
U251 glioblastoma = tested on: U251 glioblastoma
UACC-257 melanoma = tested on: UACC-257 melanoma
UACC-62 melanoma = tested on: UACC-62 melanoma

SMILES: Cc1ccc(S(=O)(=O)Oc2ccc3sc4cccc(NCCN(C)C)c4c(=O)c3c2)cc1
- GI50 ([…]-0 renal): > 100000 nM
- TGI (786-0 renal): > 100000 nM
- GI50 (A498 renal): > 100000 nM
- TGI (A498 renal): > 100000 nM
- GI50 (A549 NSCLC): 1850 nM
- TGI (A549 NSCLC): 3340 nM
- GI50 (ACHN renal): 1730 nM
- TGI (ACHN renal): 3140 nM
- GI50 (BT-549 breast): 1860 nM
- TGI (BT-549 breast): 3280 nM
- GI50 (CAKI-1 renal): 1650 nM
- TGI (CAKI-1 renal): 3040 nM
- GI50 (CCRF-CEM leukemia): 1700 nM
- TGI (CCRF-CEM leukemia): 3110 nM
- GI50 (COLO 205 colon): 1940 nM
- TGI (COLO 205 colon): 3400 nM
- GI50 (DU-145 prostate): 1970 nM
- TGI (DU-145 prostate): 3430 nM
- GI50 (EKVX NSCLC): 1850 nM
- TGI (EKVX NSCLC): 3280 nM
- GI50 (HCC-2998 colon): 1240 nM
- TGI (HCC-2998 colon): 2510 nM
- GI50 (HCT-116 colon): 1830 nM
- TGI (HCT-116 colon): 3300 nM
- GI50 (HCT-15 colon): > 100000 nM
- TGI (HCT-15 colon): > 100000 nM
- GI50 (HL-60(TB) leukemia): 787 nM
- TGI (HL-60(TB) leukemia): 2060 nM
- GI50 (HOP-62 NSCLC): 2100 nM
- TGI (HOP-62 NSCLC): 3560 nM
- GI50 (HOP-92 NSCLC): 1900 nM
- TGI (HOP-92 NSCLC): 3320 nM
- GI50 (HS 578T breast): 1920 nM
- TGI (HS 578T breast): 3350 nM
- GI50 (HT29 colon): 1710 nM
- TGI (HT29 colon): 3100 nM
- GI50 (IGROV1 ovarian): 1650 nM
- TGI (IGROV1 ovarian): 3010 nM
- GI50 (K-562 leukemia): 1910 nM
- TGI (K-562 leukemia): 3330 nM
- GI50 (KM12 colon): 1790 nM
- TGI (KM12 colon): 3230 nM
- GI50 (LOX IMVI melanoma): 1780 nM
- TGI (LOX IMVI melanoma): 3200 nM
- GI50 (M14 melanoma): 2050 nM
- TGI (M14 melanoma): 3490 nM
- GI50 (MALME-3M melanoma): 1890 nM
- TGI (MALME-3M melanoma): 3310 nM
- GI50 (MCF7 breast): 1380 nM
- TGI (MCF7 breast): 2710 nM
- GI50 (MDA-MB-435 melanoma): 1780 nM
- TGI (MDA-MB-435 melanoma): 3180 nM
- GI50 (MDA-MB-468 breast): 2490 nM
- TGI (MDA-MB-468 breast): 3960 nM
- GI50 (MOLT-4 leukemia): 1590 nM
- TGI (MOLT-4 leukemia): 2950 nM
- GI50 (NCI-H226 lung): 1700 nM
- TGI (NCI-H226 lung): 3080 nM
- GI50 (NCI-H23 lung): 1990 nM
- TGI (NCI-H23 lung): 3420 nM
- GI50 (NCI-H322M lung): 2030 nM
- TGI (NCI-H322M lung): 3480 nM
- GI50 (NCI-H460 NSCLC): 1720 nM
- TGI (NCI-H460 NSCLC): 3220 nM
- GI50 (NCI-H522 lung): > 100000 nM
- TGI (NCI-H522 lung): > 100000 nM
- GI50 (NCI/ADR-RES ovarian): 1830 nM
- TGI (NCI/ADR-RES ovarian): 3240 nM
- GI50 (OVCAR-3 ovarian): 1910 nM
- TGI (OVCAR-3 ovarian): 3330 nM
- GI50 (OVCAR-4 ovarian): > 100000 nM
- TGI (OVCAR-4 ovarian): > 100000 nM
- GI50 (OVCAR-8 ovarian): 2110 nM
- TGI (OVCAR-8 ovarian): 3590 nM
- GI50 (PC-3 prostate): 1810 nM
- TGI (PC-3 prostate): 3220 nM
- GI50 (RPMI-8226 leukemia): 2280 nM
- TGI (RPMI-8226 leukemia): 3750 nM
- GI50 (RXF 393 renal): 1930 nM
- TGI (RXF 393 renal): 3360 nM
- GI50 (SF-268 CNS): 2200 nM
- TGI (SF-268 CNS): 3670 nM
- GI50 (SF-295 CNS): > 100000 nM
- TGI (SF-295 CNS): > 100000 nM
- GI50 (SF-539 CNS): 1860 nM
- TGI (SF-539 CNS): 3290 nM
- GI50 (SK-MEL-2 melanoma): 1990 nM
- TGI (SK-MEL-2 melanoma): 3420 nM
- GI50 (SK-MEL-28 melanoma): 1950 nM
- TGI (SK-MEL-28 melanoma): 3380 nM
- GI50 (SK-MEL-5 melanoma): 1290 nM
- TGI (SK-MEL-5 melanoma): 2580 nM
- GI50 (SK-OV-3 ovarian): 1640 nM
- TGI (SK-OV-3 ovarian): 3020 nM
- GI50 (SN12C renal): 1910 nM
- TGI (SN12C renal): 3330 nM
- GI50 (SNB-19 CNS): 2080 nM
- TGI (SNB-19 CNS): 3540 nM
- GI50 (SNB-75 CNS): 2090 nM
- TGI (SNB-75 CNS): 3530 nM
- GI50 (SW-620 colon): 1880 nM
- TGI (SW-620 colon): 3350 nM
- GI50 (TK-10 renal): > 100000 nM
- TGI (TK-10 renal): > 100000 nM
- GI50 (U251 glioblastoma): 2070 nM
- TGI (U251 glioblastoma): 3540 nM
- GI50 (UACC-257 melanoma): 1890 nM
- TGI (UACC-257 melanoma): 3300 nM
- GI50 (UACC-62 melanoma): 1940 nM
- TGI (UACC-62 melanoma): 3380 nM
